The record followed here is patent publication US5145850A, “Imidazopyridazines, their production and use” (Takeda Chemical Industries, Ltd., priority 1990, dated 1992).

The subject of the assay is Platelet Activating Factor (PAF)-induced bronchoconstriction. Description: Effect on Bronchoconstriction Induced by Platelet Activating Factor (PAF) in Guinea Pigs (Konzett-Rossler method). The format is in vivo, Male Hartley guinea pigs. As to conditions: guinea pig; drug 10 mg/Kg orally 1 hour before PAF (1 μg/Kg, i.v.); recorded for 15 minutes. The protocol:
Effect on Bronchoconstriction Induced by Platelet Activating Factor (PAF) in Guinea Pigs
Male Hartley guinea pigs (body weight 500 g) were used. The bronchoconstriction reaction in the guinea pig which has intravenously received PAF (1 μg/Kg) was measured by the Konzett-Rossler method. The trachea of the guinea pig with its back fixed was incised under anesthesia condition with urethane (intraperitoneal injection, 1.50 g/Kg) and connected with an artificial respirator via a cannula. The branch of the tracheal cannula was connected with a transducer (7020 type, Ugobasile). Air was sent to the trachea at the volume of 3-7 ml/stroke, at the stroke of 70 strokes/min. at load pressure of 10 cm H2 O to lung and overflowed air volume was recorded with Rectegraph (Recte-Hori-8s, Sanei Sokuki) via the transducer. After the guinea pig was treated with galamine (1 mg/Kg, i.v.), PAF (1 μg/Kg) dissolved in a physiological saline solution was administered to the guinea pig via a jugular venous cannula and the bronchoconstriction reaction induced thereby was recorded for 15 minutes. The drug (10 mg/Kg) suspended in a 5% gum arabic solution was administered orally 1 hour before the injection of PAF.
On to `NS(=O)(=O)CC1(COc2ccc3nccn3n2)CCCCC1` [Example 1, 6-[(2,2-pentamethylene-3-sulfamoylpropyl)oxy]imidazo[1,2-b]pyridazine], for which the “Inhibition (%) of PAF-induced bronchoconstriction” value (from here on “Inhibition (%)”) stood at 72%.

Regarding `NS(=O)(=O)CC1(COc2ccc3nccn3n2)CCCC1` [Example 2, 6-[(2,2-tetramethylene-3-sulfamoylpropyl)oxy]imidazo[1,2-b]pyridazine], the “Inhibition (%)” value came to 78%.

As for `NS(=O)(=O)CC1(COc2ccc3nccn3n2)CCC1` [Example 3, 6-[(2,2-trimethylene-3-sulfamoylpropyl)oxy]imidazo[1,2-b]pyridazine], the “Inhibition (%)” value is 58%.

As for `NS(=O)(=O)CC1(COc2ccc3nccn3n2)CC1` [Example 4, 6-[(2,2-dimethylene-3-sulfamoylpropyl)oxy]imidazo[1,2-b]pyridazine], the “Inhibition (%)” value is on record as 48%.

On to `NS(=O)(=O)CC1(COc2ccc3nccn3n2)COC1` [Example 9, 6-[[2,2-(2-oxatrimethylene)-3sulfamoylpropyl]oxy]imidazo[1,2-b]pyridazine], for which the “Inhibition (%)” value is reported as 51%.

On to `NS(=O)(=O)CC1(CSc2ccc3nccn3n2)CCC1` [Example 13, 6-[(2,2-trimethylene-3-sulfamoylpropyl)thio]imidazo[1,2-b]pyridazine], for which the “Inhibition (%)” value was 40%.
